SMILES strings stand for the structures.

Type in all cases: functional
The test system of experiment [1] is Mycobacterium tuberculosis. The experiment is described as follows: Antitubercular activity against Mycobacterium tuberculosis H37Rv expressing inhA M103L mutant assessed as parasite growth inhibition after 7 days by Alamar Blue assay. On the technique in general: Resazurin is reduced to fluorescent resorufin, in cell work by metabolically active cells.
Experiment [2] relates to Mycobacterium tuberculosis. Put plainly: Antitubercular activity against Mycobacterium tuberculosis H37Rv expressing inhA G96V mutant assessed as parasite growth inhibition after 7 days by Alamar Blue assay.
The subject of experiment [3] is Mycobacterium tuberculosis. Put plainly: Antitubercular activity against Mycobacterium tuberculosis H37Rv expressing inhA M103I mutant assessed as parasite growth inhibition after 7 days by Alamar Blue assay.

Broadly, the MIC is the least concentration at which growth counts as inhibited. As for `NNC(=O)c1ccncc1` [ISONIAZID], the values for the minimum inhibitory concentration (MIC) in experiment [1], in experiment [2] and in experiment [3] were 0.03 µg/mL, 0.06 µg/mL and 0.06 µg/mL, respectively.

On to `Cc1csc(C(C)(O)c2nnc(Nc3ncn(Cc4c(F)cccc4F)n3)s2)n1` (racemic), for which the minimal inhibitory concentration (MIC) in experiment [1], in experiment [2] and in experiment [3] was above 25 µM throughout.

For `COc1c(N2C[C@@H]3CCCN[C@@H]3C2)c(F)cc2c(=O)c(C(=O)O)cn(C3CC3)c12` [MOXIFLOXACIN], the minimum inhibitory concentration (MIC) in experiment [1], in experiment [2] and in experiment [3] was 0.12 µg/mL throughout.

For the compound `CO[C@H]1/C=C/O[C@@]2(C)Oc3c(C)c(O)c4c(O)c(c(/C=N/N5CCN(C)CC5)c(O)c4c3C2=O)NC(=O)/C(C)=C\C=C\[C@H](C)[C@H](O)[C@@H](C)[C@@H](O)[C@@H](C)[C@H](OC(C)=O)[C@@H]1C` [RIFAMPIN], the MIC in experiment [1] came out at 0.007 µg/mL; in experiment [2], 0.01 µg/mL; in experiment [3], 0.007 µg/mL.

For the compound `Cc1csc([C@](C)(O)c2nnc(Nc3ccn(Cc4c(F)cccc4F)n3)s2)n1`, the MIC in experiment [1], in experiment [2] and in experiment [3] was above 25 µM throughout.

The values are drawn from ChEMBL document CHEMBL3085704, “Methyl-thiazoles: a novel mode of inhibition with the potential to develop novel inhibitors targeting InhA in Mycobacterium tuberculosis” (J Med Chem, 2013).
